We go through seven compounds from patent US20090054329A1, “COMPOSITION WITH DOCOSAPENTAENOIC ACID” (N.V. Nutricia, priority 2005, published 2009).

For experiment [1], the system named is intestinal epithelial cell lines T84. Briefly: Transepithelial resistance (TER) of T84 monolayers. Type of experiment: cell-based, human. The conditions noted are these: for Resistance (TER) Disrupted by IL-4 / Resistance (TER) Basal: T84 monolayers, fatty acid 100 μM, 72 hr incubation; for Resistance (TER) Disrupted by IL-4: IL-4 mediated barrier disruption; for Effect on epithelial resistance (in words): both under basal and barrier disruptive conditions, 100 μM, 72 hr; for Effect on barrier integrity and epithelial paracellular permeability (in words): summary statement. The method, then:
Monolayers (MC) of intestinal epithelial cell lines T84 (American Type Culture Collection (ATTC), Manassas, USA) were cultured on transwell filters (Corning, Costar BV, The Netherlands) allowing both mucosal and serosal sampling and stimulation of human intestinal epithelial cells. […] Louis, USA). The latter procedure was chosen to mimic the in vivo administration route of the dietary compounds. […] Experiments were performed to evaluate basal barrier integrity and cytokine (IL-4) induced barrier disruption. The epithelial barrier function was determined by measuring the transepithelial resistance (TER, Ω.cm^2) by epithelial volt-ohm meter (EVOM; World Precision Instruments, Germany) and permeability for 4 kD FITC dextran (paracellular permeability marker, Sigma, USA). Epithelial permeability for 4 kDa FITC-dextran was determined as follows. Prior to dextran fluxes the medium was refreshed with culture medium without phenol red for one hour followed by addition of 5 μl (stock 100 mg/ml) 4 kDa FITC-dextran to the luminal compartment. After 60 min of incubation 100 μl sample was collected from the serosal compartment and the fluorescent signal measured at excitation wavelength 485 nm and emission 520 nm (FLUOstar Galaxy®, BMG Labtechnologies, USA). FITC-dextran fluxes were calculated as pmol FITC-dextran/cm^2/h. Statistical analyses were performed using the ANOVA (SPSS version 10).

Experiment [2] shares this test system. The experiment is described as follows: Permeability for 4 kD FITC dextran (flux) across T84 monolayers. Type of experiment: cell-based, human. Conditions: for Permeability (Flux) Increased by IL-4: T84 monolayers, fatty acid 100 μM, 72 hr incubation, IL-4, 4 kDa FITC-dextran; for Effect on increase of permeability caused by cytokines (in words): incubations with cytokines (IL-4), 100 μM, 72 hr. The method, then:
Monolayers (MC) of intestinal epithelial cell lines T84 (American Type Culture Collection (ATTC), Manassas, USA) were cultured on transwell filters (Corning, Costar BV, The Netherlands) allowing both mucosal and serosal sampling and stimulation of human intestinal epithelial cells. Two weeks post confluence the monolayers were incubated in the luminal compartment with polyunsaturated fatty acids DPA (7,10,13,16,19-docosapentaenoic acid, 22:5 n3), AA (arachidonic acid; 5,8,11,14-eicosatetraenoic acid), DHA (cis-4,7,10,13,16,19 docosahexaenoic acid), EPA (eicosapentaenoic acid) or control palmitic (C 16:0) acid (Palm) (Sigma, St. Louis, USA). The latter procedure was chosen to mimic the in vivo administration route of the dietary compounds. Cells were incubated with DPA, AA, DHA, EPA, or palmitic acid for 0, 24, 48 and 72 h at 100 μM.
Experiments were performed to evaluate basal barrier integrity and cytokine (IL-4) induced barrier disruption. The epithelial barrier function was determined by measuring the transepithelial resistance (TER, Ω.cm^2) by epithelial volt-ohm meter (EVOM; World Precision Instruments, Germany) and permeability for 4 kD FITC dextran (paracellular permeability marker, Sigma, USA). Epithelial permeability for 4 kDa FITC-dextran was determined as follows. Prior to dextran fluxes the medium was refreshed with culture medium without phenol red for one hour followed by addition of 5 μl (stock 100 mg/ml) 4 kDa FITC-dextran to the luminal compartment. After 60 min of incubation 100 μl sample was collected from the serosal compartment and the fluorescent signal measured at excitation wavelength 485 nm and emission 520 nm (FLUOstar Galaxy®, BMG Labtechnologies, USA). FITC-dextran fluxes were calculated as pmol FITC-dextran/cm^2/h. Statistical analyses were performed using the ANOVA (SPSS version 10).

Experiment [3] deals with MUC-2 expression. Conditions: MC T84 and CC T84; compared to propionate and butyrate. From the text:
See also the examples in applicants' co-pending European application no. 04748674.1).

The structures appear in SMILES notation.

With `CCCCCC=CCC=CCC=CCC=CCCCC(=O)O` [AA, 5,8,11,14-eicosatetraenoic acid], in experiment [1], the “Resistance (TER) Disrupted by IL-4” value is 337 ± 13 Ω.cm^2, the “Resistance (TER) Basal” value was 634 ± 29 Ω.cm^2 and the “Effect on epithelial resistance (in words)” value is given as “improve epithelial resistance”. Moreover, in experiment [2], the “Permeability (Flux) Increased by IL-4” value is 273 ± 76 pmol FITC-dextran/cm^2/h and the “Effect on increase of permeability caused by cytokines (in words)” value (from here on “Effect on increase”) is recorded as “effectively reduced”.
Turning to `CCC=CCC=CCC=CCC=CCC=CC/C=C\CCC(=O)O` [DHA, cis-4,7,10,13,16,19 docosahexaenoic acid], in experiment [1], the “Resistance (TER) Disrupted by IL-4” value is given as 328 ± 7 Ω.cm^2, the “Resistance (TER) Basal” value is reported as 584 ± 50 Ω.cm^2 and the “Effect on epithelial resistance (in words)” value is reported as “improve epithelial resistance”. In experiment [2], the “Permeability (Flux) Increased by IL-4” value was found to be 304 ± 75 pmol FITC-dextran/cm^2/h and the “Effect on increase” value is listed as “effectively reduced”.
Regarding `CCC=CCC=CCC=CCC=CCC=CCCCCCC(=O)O` [DPA, 7,10,13,16,19-docosapentaenoic acid], in experiment [1], the “Resistance (TER) Disrupted by IL-4” value was 368 ± 4 Ω.cm^2; the “Resistance (TER) Basal” value is listed as 605 ± 27 Ω.cm^2; the “Effect on epithelial resistance (in words)” value was “improve epithelial resistance”; the “Effect on barrier integrity and epithelial paracellular permeability (in words)” value is “effectively improves barrier integrity and reduces epithelial paracellular permeability”. Moreover, in experiment [2], the “Permeability (Flux) Increased by IL-4” value was 216 ± 123 pmol FITC-dextran/cm^2/h and the “Effect on increase” value is “effectively reduced”.
Take `CC/C=C\C/C=C\C/C=C\C/C=C\C/C=C\CCCC(=O)O` [EPA, eicosapentaenoic acid]: in experiment [1], the “Resistance (TER) Disrupted by IL-4” value is 375 ± 9 Ω.cm^2 and the “Resistance (TER) Basal” value is 584 ± 7 Ω.cm^2. In addition, the “Permeability (Flux) Increased by IL-4” value in experiment [2] was determined as 236 ± 145 pmol FITC-dextran/cm^2/h.
For the compound `CCCCCCCCCCCCCCCC(=O)O` [Palmitic acid, palmitic acid], in experiment [1], the “Resistance (TER) Disrupted by IL-4” value is reported as 272 ± 11 Ω.cm^2, the “Resistance (TER) Basal” value is 496 ± 50 Ω.cm^2 and the “Effect on epithelial resistance (in words)” value is listed as “not effective”. For the same compound, in experiment [2], the “Permeability (Flux) Increased by IL-4” value is given as 646 ± 106 pmol FITC-dextran/cm^2/h and the “Effect on increase” value was “not”.
For the compound `CC(=O)O` [acetate], in experiment [3], the “Stimulation of MUC-2 expression (mucus production)” value is recorded as “more potent in stimulating MUC-2 expression”.
`CCCCC/C=C\C/C=C\CCCCCCCC(=O)O` [linoleic acid]: in experiment [1], the “Effect on barrier integrity and epithelial paracellular permeability (in words)” value is listed as “ineffective”.
